The values that follow come from US20150051273A1, “USE OF DELPHINIDIN AGAINST STAPHYLOCOCCUS AUREUS” (Sapiotec GmbH, priority 2012, published 2015).

Series [1] in a line: Solubility of delphinidin chloride in aqueous cyclodextrin solutions. In kind it is physicochemical. The following applies: pure water, cyclodextrin concentration 0; excess delphinidin chloride, 30° C., 20 h, dark, 0.22 μm filter.
Experimental: In this example, the complexing of delphinidin by different cyclodextrins and the solubility of the complex in aqueous solution are investigated.
Neutral aqueous solutions were prepared, containing 10 wt % of the respective cyclodextrin.
5 ml each of the aqueous cyclodextrin solutions and of pure water were introduced into glass flasks. Then an excess of delphinidin chloride was added.
The suspensions were stirred in the dark at 30° C. for 20 h. This was followed by filtration through a membrane filter with a 0.22 μm pore size.
A short description of series [2]: Stability tests in aqueous solution (delphinidin content by HPLC). The following applies: 0.9% NaCl solution, 37° C., dark, start 1.584 mg/ml (complex) or 0.0216 mg/ml (uncomplexed). In kind it is physicochemical. As to the method:
The delphinidin chloride content of the delphinidin-containing solutions was determined using a reversed-phase HPLC technique similar to that already described above. The following reagents were employed here:
The solutions were prepared at room temperature and then stored in closed vials in the dark at 37° C.
The delphinidin content was determined after 1, 2, 3, and 4 h. The table below reports the content found, as a percentage of the abovementioned starting concentration.

For series [3], the system named is Pseudomonas aeruginosa ATCC9027. Nature of the series: Bacterial growth, static model (visual evaluation, vitality test). The class given is cell-based. The following applies: P. aeruginosa; RPMI-1640, 37° C., 48 hours. The source says:
(§1) The strains selected were as follows: • Pseudomonas aeruginosa ATCC9027, biofilm-positive clinical isolate from an outer ear infection (reference strain);
(§2) Investigating the effect of delphinidin on the bacterial growth and the bacterial formation of biofilm took place by means of • a) visual evaluation of bacterial growth (static model), • b) vitality test (scrape on blood agar plates) • c) analysis of the biofilm in a static model by means of the crystal violet assay as described above in section 1.
(§3) The control used was sterile RPMI-1640. Then delphinidin in solution in RPMI-1640 was added, from a dilution series produced beforehand, and the cell culture dish was incubated at 37° C. for 48 hours, the visual outcome thereof being shown in FIG. 2. The color change from (phenol) red to yellow correlates with the extent of the bacterial growth.
(§4) Scrapes of the bacteria from the culture dish are shown in FIG. 3 (P. aeruginosa ATCC9027), 4 (K. pneumoniae ATCC700603), 5 (MRSA2318), 6 (MRSA2855) and 7 (MSSA1155). “ST 26.1.11” and “ST 28.1.11” in the case of the scrapes on the agar plates refers to the respective scraping date of the duplicated experiments.

The test system of series [4] is Klebsiella pneumoniae ATCC700603. The series is described as above. Conditions: K. pneumoniae; RPMI-1640, 37° C., 48 hours. In kind it is cell-based.
Source text: (§5) Klebsiella pneumoniae ATCC700603 biofilm-positive clinical isolate from urine from an ESBL+(Extended Spectrum Beta-Lactamase) hospital patient (reference strain);
as §2, §3, §4

Series [5] relates to Staphylococcus aureus MRSA2318, MRSA2855, MSSA1155. The description is as above. The class given is cell-based. Conditions: S. aureus (both MSSA and MRSA); RPMI-1640, 37° C., 48 hours.
Source text: (§6) Staphylococcus aureus MRSA2318 biofilm-positive clinical isolate from tracheal secretion of 22.04.2009 (Würzburg University Hospital, neurosurgical clinic and polyclinic I, intensive therapy unit); • Staphylococcus aureus MRSA2855 biofilm-positive clinical isolate from blood culture of 22.04.2009 (Würzburg University Hospital, medical clinic and polyclinic I, ITU); • Staphylococcus aureus MSSA1155 biofilm-positive clinical isolate from 27.04.2004 from abdominal cavity scrape (Würzburg University clinic, urology, unit B).
as §2, §3
Scrapes of the bacteria from the culture dish are shown in FIG. 3 (P. aeruginosa ATCC9027), 4 (K. pneumoniae ATCC700603), 5 (MRSA2318), 6 (MRSA2855) and 7 (MSSA1155). […]

The test system of series [6] is Pseudomonas aeruginosa ATCC9027. As to the kind of experiment: Biofilm formation, static model, crystal violet assay. In kind it is cell-based. Conditions: P. aeruginosa, RPMI-1640, 37° C., 48 hours. The procedure:
as §1
(§7) The growth and the analysis of the biofilm were determined in a static model by means of the crystal violet assay according to basic protocol 1 in Current Protocols in Microbiology 1B.1.2-1B.1.4 “MICROTITER PLATE BIOFILM ASSAY” [published online August 2011 in Wiley Online Library (wileyonlinelibrary.com) DOI: 10.1002/9780471729259. mc01b01s22].
Investigating the effect of delphinidin on the bacterial growth and the bacterial formation of biofilm took place by means of • a) visual evaluation of bacterial growth (static model), • b) vitality test (scrape on blood agar plates) • c) analysis of the biofilm in a static model by means of the crystal violet assay as described above in section 1. […]
(§8) With the same experimental setup, the biofilm was analyzed by means of the crystal violet test as described above in section 1, the outcome thereof, after 48 hours of incubation and the crystal violet test, is shown overall in FIG. 8, and in FIGS. 9-13 in each case after measurement of the optical density, processed graphically for the respective delphinidin concentrations in the case of the individual bacterial strains (FIG. 9: P. aeruginosa ATCC9027, FIG. 10: K. pneumoniae ATCC700603, FIG. 11: MRSA2318, FIG. 12: MRSA2855, FIG. 13: MSSA1155).

Series [7] has as its system Klebsiella pneumoniae ATCC700603. Described as above. The class given is cell-based. Conditions: K. pneumoniae, RPMI-1640, 37° C., 48 hours. As to the method: as §5
The growth and the analysis of the biofilm were determined in a static model by means of the crystal violet assay according to basic protocol 1 in Current Protocols in Microbiology 1B.1.2-1B.1.4 “MICROTITER PLATE BIOFILM ASSAY” [published online August 2011 in Wiley Online Library (wileyonlinelibrary.com) DOI: 10.1002/9780471729259. mc01b01s22]. […]
as §8

The subject of series [8] is Staphylococcus aureus MRSA2318, MRSA2855, MSSA1155. The series is described as above. Conditions: S. aureus (both MSSA and MRSA), RPMI-1640, 37° C., 48 hours. The class given is cell-based.
Source text: as §6, §7, §2
The control used was sterile RPMI-1640. […]

Entries after “also recorded” stand apart in the source; their conditions may differ.

For `Oc1cc(O)c2cc(O)c(-c3cc(O)c(O)c(O)c3)[o+]c2c1.[Cl-]` [Delphinidin chloride, delphinidin chloride], in series [1], the “Delphinidin chloride (solubility achievable)” value stood at 70 µg/mL.
With `Oc1cc(O)c2cc(O)c(-c3cc(O)c(O)c(O)c3)[o+]c2c1` [Delphinidin], the “Delphinidin content as a percentage of the starting concentration” value in series [2] (0 h) stood at 100%; in series [2] (1 h), 8.3%; in series [2] (2 h), 6.5%; in series [2] (3 h), 5.6%; in series [2] (4 h) it was 5.1%. The values for the Effect on growth result in series [3], in series [4] and in series [5] were “no inhibiting effect”, “no inhibiting effect” and “inhibiting effect”, respectively. The results for the “Effect on formation of biofilm” value in series [6], in series [7] and in series [8] were “no inhibiting effect”, “no inhibiting effect; also recorded: appears still to be being stimulated” and “inhibiting effect”, respectively.
